In PubChem BioAssay (NCI):
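Growth conditions: 96-well plates. Treatment: test compound, 48 hours, 5 concentrations. Analysis: linear interpolation between bracketing concentrations; unreached endpoints set to highest concentration. GI50 = concentration required for 50% inhibition of growth. TGI marks complete inhibition of growth.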

Columns and labels:
Experiment in all cases: growth of human tumour cells (NCI), 48 h
UACC-62 melanoma = tested on: UACC-62 melanoma
OVCAR-3 ovarian = tested on: OVCAR-3 ovarian
HCT-15 colon = tested on: HCT-15 colon
HS 578T breast = tested on: HS 578T breast
SK-MEL-28 melanoma = tested on: SK-MEL-28 melanoma
SK-MEL-2 melanoma = tested on: SK-MEL-2 melanoma
HCT-116 colon = tested on: HCT-116 colon
CCRF-CEM leukemia = tested on: CCRF-CEM leukemia
OVCAR-8 ovarian = tested on: OVCAR-8 ovarian
NCI-H226 lung = tested on: NCI-H226 lung

SMILES	GI50 (UACC-62 melanoma) [µM]	TGI (UACC-62 melanoma) [µM]	GI50 (OVCAR-3 ovarian) [µM]	TGI (OVCAR-3 ovarian) [µM]	GI50 (HCT-15 colon) [µM]	TGI (HCT-15 colon) [µM]	GI50 (HS 578T breast) [µM]	TGI (HS 578T breast) [µM]	GI50 (SK-MEL-28 melanoma) [µM]	TGI (SK-MEL-28 melanoma) [µM]	GI50 (SK-MEL-2 melanoma) [µM]	TGI (SK-MEL-2 melanoma) [µM]	GI50 (HCT-116 colon) [µM]	TGI (HCT-116 colon) [µM]	GI50 (CCRF-CEM leukemia) [µM]	TGI (CCRF-CEM leukemia) [µM]	GI50 (OVCAR-8 ovarian) [µM]	TGI (OVCAR-8 ovarian) [µM]	GI50 (NCI-H226 lung) [µM]	TGI (NCI-H226 lung) [µM]
CN(C)c1ccc(C(=S)c2ccc(N(C)C)cc2)cc1	4.47	> 100	3.93	> 100	4.27	> 100	3.84	> 100	7.59	> 100	3.53	15.2	3.71	> 100	6.64	> 100	11.6	> 100	22.2	> 100
CC1(C)OB(c2ccc(N(CCOS(C)(=O)=O)CCOS(C)(=O)=O)cc2)OC1(C)C	13	33	18.9	45.3	15.6	41	32.3	> 87	34	> 83.7	28.6	> 79.1	10.5	24.7	1.98	> 39.6	21.7	> 92.3	9.02	33.6
O=C1/C(=C/c2cccnc2)SC(=S)N1Cc1ccco1		> 82.3		10.4		> 100		> 22.1		> 100		> 27.2		> 24.9		14.5		> 48.5		92
COc1ccc2[nH]c(Cl)c(/C=C3/C(=O)Nc4ccccc43)c2c1	1.11	2.51	0.537	1.07	0.611	3.36	0.837	4.31	0.459	5.47	1.2	> 30.8	0.238	1.17	0.216	0.737	0.498		0.782	19.2
C=CC(=O)N[C@@H]1CN(c2nc(Nc3cn(C)nc3OC)c3ncn(C)c3n2)C[C@H]1F	23.1	> 90.6	19	> 88	39	> 100	34	> 100	50	> 100	26.1	78.3	27.3	> 100	39.4	> 100	33.6	> 100	> 83	> 100
Nc1n[n+]([O-])c2cc([N+](=O)[O-])ccc2[n+]1[O-]		9.84		15.2		13.6		44		> 100		36.3		16.5		9.74		20.5		30.7
Oc1ccc(NC(=S)Nc2ccccc2)cc1	> 100	> 100	> 100	> 100	> 100	> 100	> 100	> 100	> 100	> 100	> 100	> 100	> 100	> 100	> 100	> 100	> 100	> 100	> 100	> 100
C[C@H]1CCC/C=C/C2CC(OC(=O)CN(C)C)CC2C(OC(=O)CN(C)C)/C=C/C(=O)O1 (some centres undefined)	0.443	> 65.4	0.428	3.2	0.272	> 32.4	30.1	> 100	0.472	> 100	0.224	3.79	0.762	16.7	0.647	> 40.6	0.308	> 22.9	0.133	0.44
C/C=C1/CN2CCC34C(=C(C(=O)OC)C1CC23)Nc1ccc(O)cc14 (centres undefined)		> 100		> 100		> 100		> 100		> 100		> 100		> 100		> 100		> 100		> 100
NC(N)=NN=c1c(=O)c2ccccc2c1=O	12.7	25.8	13	26.4	1.88	3.84	10.1	> 100	2	3.88	20.7	40.1	2.01	4.18	2.14	5.27	10.1	22.5	14.8	28.1
